# Data reported in patent US20170027172A1, “USE OF SUBSTITUTE OXO TETRAHYDROQUINOLINE SULFONAMIDES OR SALTS THEREOF FOR RAISING STRESS TOLERANCE OF PLANTS” (BAYER CROPSCIENCE AKTIENGESELLSCHAFT, priority 2014, published 2017).
# Assays:
# [1] = system: Triticum aestivum; test: Drought stress greenhouse test Part C, visual scoring vs stressed control plants; format: in vivo; settings: efficacy range of 3-4 pots
# Description: Seeds of monocotyledonous and dicotyledonous crop plants were sown in sandy loam in plastic or wood-fiber pots, covered with soil or sand and cultivated in a greenhouse under good growth conditions. The trial plants were treated at the early leaf stage (BBCH10-BBCH13). To assure uniform water supply before commencement of stress, the potted plants were supplied with water by dam irrigation prior to substance application. The inventive compounds were first formulated as wettable powders (WP) or dissolved in a solvent mixture. The further dilution was effected with water supplemented with 0.2% wetting agent (e.g. agrotin). The finished spray liquor was sprayed onto the green parts of the plant at an equivalent water application rate of 600 l/ha. Substance application was followed immediately by stress treatment of the plants. For this purpose, the wood-fiber pots were transferred in plastic inserts in order to prevent them from subsequently drying out too quickly. Drought stress was induced by gradual drying out under the following conditions: “Day”: 14 hours with illumination at 26-30° C. “Night”: 10 hours without illumination at 18-20° C. The duration of the respective stress phases was guided mainly by the condition of the stressed control plants. It was ended (by re-irrigating and transfer to a greenhouse with good growth conditions) as soon as irreversible damage was observed on the stressed control plants. The end of the stress phase was followed by an about 4-7-day recovery phase, during which the plants were once again kept under good growth conditions in a greenhouse. The duration of the recovery phase was guided mainly by when the trial plants had attained a state which enabled visual scoring of potential effects, and was therefore variable. Once this juncture had been reached, the appearance of the plants treated with test substances was recorded in comparison to the stressed control plants by the following categories: [table] For each substance and dosage, 3-4 pots were treated and evaluated. […] BRSNS=Brassica napus TRZAS=Triticum aestivum
# [2] = system: Triticum aestivum; test: Drought stress test on wheat Part D, reduction in damage intensity from fresh weights; format: in vivo; settings: efficacy = reduction in damage intensity (fresh weight) under drought stress, at least three repeats
# Description: Wheat grains were sown in a standardized number in sandy loam soil plastic pots, covered with soil or sand and grown in a greenhouse under good growth conditions. Pots with uneven degrees of emergence were excluded prior to the start of the trial. The treatment with test substances was effected at the early leaf stage (BBCH10-BBCH13). To assure uniform water supply, the potted plants were supplied with water by dam irrigation prior to substance application. The inventive compounds were first formulated as wettable powders (WP) or dissolved in a solvent mixture. The further dilution was effected with water supplemented with 0.2% wetting agent (e.g. agrotin). The finished spray liquor was sprayed onto the green parts of the plant at an equivalent water application rate of 600 l/ha. Substance application was followed immediately by stress treatment of the plants. Drought stress was induced by gradual drying out under the following conditions: “Day”: 14 hours with illumination at 26-30° C. “Night”: 10 hours without illumination at 18-20° C. The duration of the respective stress phases was guided mainly by the condition of the stressed control plants. It was ended (by re-irrigating and transfer to a greenhouse with good growth conditions) as soon as irreversible damage was observed on the stressed control plants. The end of the stress phase was followed by an about 7-day recovery phase, during which the plants were once again kept under good growth conditions in a greenhouse. The exact duration of the recovery phase was variable for reasons related to the trial. At the end of the recovery phase, the fresh weights of the plant parts above ground were determined. By comparison with unstressed control plants which were kept under good growth conditions over the entire duration of the trial, percentage damage intensities were first calculated from the fresh weight values. The reduction in damage intensity resulting from treatment with test substance was then calculated by the following formula: [formula] EF: Efficacy DIs: Damage intensity of the stressed control plants DIt: Damage intensity of the stressed plants treated with test compound The values reported in table D-1 below are results from at least three repeats. BRSNS=Brassica napus TRZAS=Triticum aestivum
# [3] = target: T1, phosphatase ABI1 via the co-regulator RCAR11/PYR1 (Arabidopsis thaliana, UniProt O49686+P49597); test: In vitro inhibition of the phosphatase ABI1 via the co-regulator RCAR11/PYR1, MUP dephosphorylation; format: biochemical; parameters: dose or concentration left out as unconfirmed; settings: in a solution of DMSO and water; fluorescence at 460 nm
# T1 sequence (O49686 1-191): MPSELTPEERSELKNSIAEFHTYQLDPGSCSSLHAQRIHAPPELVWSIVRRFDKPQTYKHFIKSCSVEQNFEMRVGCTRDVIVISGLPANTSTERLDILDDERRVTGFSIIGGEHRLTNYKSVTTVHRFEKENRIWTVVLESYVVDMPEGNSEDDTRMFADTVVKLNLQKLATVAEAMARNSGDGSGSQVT
# T1 sequence (P49597 1-434): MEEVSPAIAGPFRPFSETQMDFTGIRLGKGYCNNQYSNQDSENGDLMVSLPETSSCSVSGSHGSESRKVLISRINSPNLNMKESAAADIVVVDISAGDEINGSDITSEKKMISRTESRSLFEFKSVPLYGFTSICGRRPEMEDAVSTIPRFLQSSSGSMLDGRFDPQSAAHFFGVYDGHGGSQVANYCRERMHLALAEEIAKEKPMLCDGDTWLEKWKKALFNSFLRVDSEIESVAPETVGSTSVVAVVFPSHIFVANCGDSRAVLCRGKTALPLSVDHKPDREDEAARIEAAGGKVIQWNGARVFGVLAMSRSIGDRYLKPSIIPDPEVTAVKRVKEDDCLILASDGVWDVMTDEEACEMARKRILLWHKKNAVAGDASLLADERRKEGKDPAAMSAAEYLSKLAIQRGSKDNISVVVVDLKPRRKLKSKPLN
# In short: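 Arabidopsis ABI1 (0.15 μg/well) with RCAR11/PYR1 (0.30 μg/well) in Tris-HCl pH 8, NaCl, MnCl2, DTT, Tween20; MUP substrate, 20 min at 35 °C, fluorescence ex 340/em 460 nm. Compounds tested at 5 mM in DMSO/water, optionally pre-treated with porcine liver esterase; inhibition banded ≥90/70/50/30%.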
Compound,Effect (TRZAS) ([1]; spray application 250 g/ha),ABI1 inhibition [3],EF [%] (TRZAS) ([2]; 250 g/ha),further results
CCC1(C)CC(=O)N(CC2CC2)c2ccc(NS(=O)(=O)Cc3cccc(Cl)c3)cc21 (stereo not drawn) [F3-166],10-20,–,–,–
COC(=O)CCN1C(=O)CCc2cc(NS(=O)(=O)Cc3ccc(Cl)cc3)ccc21 [A51-165],–,++++ (inhibition≧90%),–,EF [%] (TRZAS) ([2]; 25 g/ha): 18%
O=C1CC2(CCC2)c2cc(NS(=O)(=O)Cc3ccc(Cl)cc3)ccc2N1CC1CC1 [J3-165],10-20,–,–,–
COC(=O)CCN1C(=O)CC(C)(C)c2cc(NS(=O)(=O)Cc3ccc(C)cc3)ccc21 [B51-152],10-20,–,16,–
CCOC(=O)CCN1C(=O)CC(C)(C)c2cc(NS(=O)(=O)Cc3ccc(C#N)cc3)ccc21 [B52-181],10-20,–,14,–
COC(=O)CN1C(=O)CCc2cc(NS(=O)(=O)Cc3ccc(C)cc3)ccc21 [A50-152],10-20,++++ (inhibition≧90%),–,–
COC(=O)CCN1C(=O)CCc2cc(NS(=O)(=O)Cc3cccc(C)c3)ccc21 [A51-153],–,++ (70%>inhibition≧50%),16,–
CCC1(C)CC(=O)N(CC2CC2)c2ccc(NS(=O)(=O)Cc3ccc(F)cc3)cc21 (stereo not drawn) [F3-158],–,–,–,Effect (TRZAS) ([1]; spray application 25 g/ha): 10-20
COC(=O)CN1C(=O)CC(C)(C)c2cc(NS(=O)(=O)Cc3ccc(Cl)cc3)ccc21 [B50-165],10-20,–,–,–
CCC1(C)CC(=O)N(CCOC)c2ccc(NS(=O)(=O)Cc3ccc(F)cc3)cc21 (stereo not drawn) [F7-158],10-20,–,–,–
CCC1(C)CC(=O)N(CCOC)c2ccc(NS(=O)(=O)Cc3cccc(Cl)c3)cc21 (stereo not drawn) [F7-166],10-20,–,–,–
CCOC(=O)CCN1C(=O)CC(C)(C)c2cc(NS(=O)(=O)Cc3cccc(Br)c3)ccc21 [B52-173],–,–,–,EF [%] (TRZAS) ([2]; 25 g/ha): 14%
O=C1CCc2cc(NS(=O)(=O)Cc3ccc(C(F)(F)F)cc3)ccc2N1CC12CC3CC(CC(C3)C1)C2 [A46-178],–,–,–,Effect (TRZAS) ([1]; spray application 25 g/ha): 20-30
N#CCCCN1C(=O)CCc2cc(NS(=O)(=O)Cc3cccc(Cl)c3)ccc21 [A48-166],–,++ (70%>inhibition≧50%),13,–
COC(=O)CN1C(=O)CCc2cc(NS(=O)(=O)Cc3ccc([N+](=O)[O-])cc3)ccc21 [A50-175],–,+++ (90%>inhibition≧70%),–,Effect (TRZAS) ([1]; spray application 25 g/ha): 10-20
COC(=O)CN1C(=O)CC(C)(C)c2cc(NS(=O)(=O)Cc3cccc(C(F)(F)F)c3)ccc21 [B50-179],–,–,15,–
COC(=O)CCN1C(=O)CCc2cc(NS(=O)(=O)Cc3cccc(Cl)c3)ccc21 [A51-166],–,++ (70%>inhibition≧50%),20,–

Compound,Effect (TRZAS) ([1]; spray application 250 g/ha),ABI1 inhibition [3],EF [%] (TRZAS) ([2]; 250 g/ha),further results
COC(=O)CN1C(=O)CCc2cc(NS(=O)(=O)Cc3ccccc3[N+](=O)[O-])ccc21 [A50-177],–,++ (70%>inhibition≧50%),19,–
COC(=O)CCN1C(=O)CCc2cc(NS(=O)(=O)Cc3ccc(C(F)(F)F)cc3)ccc21 [A51-178],–,++++ (inhibition≧90%),–,EF [%] (TRZAS) ([2]; 25 g/ha): 10%
CCC1(C)CC(=O)N(CCOC)c2ccc(NS(=O)(=O)Cc3ccc(Cl)cc3)cc21 (racemic) [F7-165],–,–,–,Effect (TRZAS) ([1]; spray application 25 g/ha): 10-20
CCOC(=O)CCN1C(=O)CC(C)(C)c2cc(NS(=O)(=O)Cc3cccc(Cl)c3)ccc21 [B52-166],–,–,14,–
COC(=O)CN1C(=O)CCc2cc(NS(=O)(=O)Cc3cccc(C#N)c3)ccc21 [A50-182],10-20,–,–,–
COC(=O)CCN1C(=O)CCc2cc(NS(=O)(=O)Cc3ccc(C#N)cc3)ccc21 [A51-181],–,++++ (inhibition≧90%),15,–
COC(=O)CCN1C(=O)CC(C)(C)c2cc(NS(=O)(=O)Cc3ccc(F)cc3)ccc21 [B51-158],–,–,–,EF [%] (TRZAS) ([2]; 25 g/ha): 13%
COCCN1C(=O)CC2(CCCCC2)c2cc(NS(=O)(=O)Cc3ccc(C(F)(F)F)cc3)ccc21 [I5-178],10-30,–,–,–
Cc1ccc(CS(=O)(=O)Nc2ccc3c(c2)CCC(=O)N3CCSC(F)(F)F)cc1 [A42-152],–,+++ (90%>inhibition≧70%),–,Effect (TRZAS) ([1]; spray application 25 g/ha): 10-20
COC(=O)CN1C(=O)CC(C)(C)c2cc(NS(=O)(=O)Cc3ccc(C(F)(F)F)cc3)ccc21 [B50-178],–,–,20,–
COC(=O)CN1C(=O)CC(C)(C)c2cc(NS(=O)(=O)Cc3ccc(F)cc3)ccc21 [B50-158],–,–,18,–
CCC1(C)CC(=O)N(CCOC)c2ccc(NS(=O)(=O)Cc3ccccc3)cc21 (stereo not drawn) [F7-151],–,–,–,Effect (TRZAS) ([1]; spray application 25 g/ha): 10-20
COC(=O)CCN1C(=O)CC(C)(C)c2cc(NS(=O)(=O)Cc3ccc(Br)cc3)ccc21 [B51-172],–,–,–,Effect (TRZAS) ([1]; spray application 25 g/ha): 10-20
COCCN1C(=O)CCc2cc(NS(=O)(=O)Cc3ccc(Cl)cc3)ccc21 [A38-165],10-30,++++ (inhibition≧90%),–,–
COC(=O)CCN1C(=O)CCc2cc(NS(=O)(=O)Cc3ccc(Br)cc3)ccc21 [A51-172],10-20,++++ (inhibition≧90%),–,–
COC(=O)CN1C(=O)CCc2cc(NS(=O)(=O)Cc3cccc(Br)c3)ccc21 [A50-173],–,–,–,Effect (TRZAS) ([1]; spray application 25 g/ha): 10-20
COCCN1C(=O)CC2(CCCCC2)c2cc(NS(=O)(=O)Cc3cccc(Cl)c3)ccc21 [I5-166],10-20,–,–,–
